The term Ki denotes a measure of affinity in units of concentration, obtained from inhibition or displacement.

This assay concerns the target T1, Dimer of Gag-Pol polyprotein [489-587] (Human immunodeficiency virus 1, UniProt P12497).
T1 construct: 489-587
The experiment in a line: Protease Inhibition Assay. Conditions: pH 4.7; 30 °C. The protocol: HIV-1 protease activity was measured by a continuous fluorometric assay using the internally quenched fluorogenic substrate DABCYL-GABA-Ser-Gln-Tyr-Pro-Ile-Val-Gln-EDANS (BACHEM; M-1865) and a SPEX FluoroMax spectrofluorometer (excitation 340 nm, emission 490 nm). The apparent Ki was estimated by nonlinear regression (GraFit, Erithacus Software) to the equation for tight-binding inhibitor.

Compound `CC(C)[C@H](NC(=O)N(C)Cc1ccccn1)C(=O)N[C@@H](Cc1ccccc1)C[C@@H](O)[C@H](Cc1ccccc1)NC(=O)[C@@H](NC(=O)N(C)Cc1ccccn1)C(C)C` [(2S)-N-[(2S,3R,5S)-3-hydroxy-5-[(2S)-3-methyl-2-{[methyl(pyridin-2-ylmethyl)carbamoyl]amino}butanamido]-1,6-diphenylhexan-2-yl]-3-methyl-2-{[methyl(pyridin-2-ylmethyl)carbamoyl]amino}butanamide] yielded a Ki of 4 pM. Under `CC(C)[C@H](NC(=O)N(C)Cc1ccccn1)C(=O)N[C@@H](Cc1ccccc1)[C@@H](O)[C@H](O)[C@H](Cc1ccccc1)NC(=O)[C@@H](NC(=O)N(C)Cc1ccccn1)C(C)C` [(2S)-N-[(2S,3R,4R,5S)-3,4-dihydroxy-5-[(2S)-3-methyl-2-{[methyl(pyridin-2-ylmethyl)carbamoyl]amino}butanamido]-1,6-diphenylhexan-2-yl]-3-methyl-2-{[methyl(pyridin-2-ylmethyl)carbamoyl]amino}butanamide] stands 112 pM; under `CC(C)[C@H](NC(=O)N(C)Cc1ccccn1)C(=O)N[C@@H](Cc1ccccc1)[C@H](O)[C@H](O)[C@H](Cc1ccccc1)NC(=O)[C@@H](NC(=O)N(C)Cc1ccccn1)C(C)C` [(2S)-N-[(2S,3R,4S,5S)-3,4-dihydroxy-5-[(2S)-3-methyl-2-{[methyl(pyridin-2-ylmethyl)carbamoyl]amino}butanamido]-1,6-diphenylhexan-2-yl]-3-methyl-2-{[methyl(pyridin-2-ylmethyl)carbamoyl]amino}butanamide], 12 pM; under `CC(C)[C@H](NC(=O)N(C)Cc1ccccn1)C(=O)N[C@@H](Cc1ccccc1)[C@H](O)[C@@H](O)[C@H](Cc1ccccc1)NC(=O)[C@@H](NC(=O)N(C)Cc1ccccn1)C(C)C` [JMC51852 Inhibitor PP], 11 pM.

Values taken from BindingDB's records for doi:10.1021/ja00082a004 (Nci-Fcrdc, 1994).
